Source: BindingDB's records for patent US10532048 (Seldar Pharma Inc., 2020)

Biological target: Gastrin-releasing peptide receptor (Homo sapiens, UniProt P30550)
Experiment: BB2 Receptor Antagonistic Activity
Protocol: A BB2 receptor binding test was carried out using a membrane sample prepared from a human prostate cancer-derived PC-3 cell. The PC-3 cell was cultured using an RPMI-1640 medium containing 5% fetal bovine serum, and then a membrane sample was prepared by the following methods. The cells detached by a trypsin treatment were added with a 50 mM Tris-HCl buffer (pH 7.4, containing 0.2 mg/ml trypsin inhibitor and 0.2 mg/ml benzamidine), and homogenized by Polytron. The cell suspension was centrifuged at 1,500 rpm for 10 minutes, and the supernatant thus obtained was subjected to 1 hour of ultracentrifugation at 37,000×g. The precipitate was suspended in the aforementioned buffer to a concentration of 0.4 mg protein/ml, and stored at −80° C.The BB2 receptor binding test was carried out by the following method, and the receptor antagonistic activity of a compound to be tested was calculated. […] Non-specific binding was measured using 1 μM of bombesin. […] The radioactivity on the filter was measured using a microplate scintillation counter (Top Count, Perkin-Elmer Co., Ltd.).

Chain of Gastrin-releasing peptide receptor (P30550 whole entry): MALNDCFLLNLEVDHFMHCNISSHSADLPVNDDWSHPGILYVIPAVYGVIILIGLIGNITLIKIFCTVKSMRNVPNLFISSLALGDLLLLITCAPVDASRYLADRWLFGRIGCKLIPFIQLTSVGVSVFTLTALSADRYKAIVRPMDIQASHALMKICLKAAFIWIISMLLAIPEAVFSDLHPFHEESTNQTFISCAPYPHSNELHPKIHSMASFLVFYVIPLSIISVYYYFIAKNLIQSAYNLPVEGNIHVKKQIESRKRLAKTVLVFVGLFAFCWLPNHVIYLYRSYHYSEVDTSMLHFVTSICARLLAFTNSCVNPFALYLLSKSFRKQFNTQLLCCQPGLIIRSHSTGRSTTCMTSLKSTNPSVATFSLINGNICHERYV

- IC50: 18.3 nM
Structure (SMILES): O=C(NCCc1ccccc1)[C@@H]1c2ccccc2C(=O)N([C@H](CO)c2ccccc2)[C@H]1c1ccc(Cl)cc1Cl [US10532048, Example 62]
